Data reported in patent US20230398130A1, “METHODS AND COMPOSITIONS FOR DIFFERENTIATING STEM CELLS” (Massachusetts Institute of Technology, priority 2020, published 2023).

Legend:
ISC-enriched organoids [1] = test: Primary screen, 384-well 2.5-D organoid differentiation (ENR+CD, 6 days): carbachol-induced lysozyme secretion (LYZ.S); type: cell-based, murine; details: primary screen; for Z.LYZ.S: standard z score; for SSMD.LYZ.S: strictly standardized mean difference
Description: High-throughput screening.

ISC-enriched organoids [2] = test: Secondary (validation) screen, 384-well 2.5-D, ENR+CD 6 days, n=8 wells, vs ENR+CD+DMSO control: ATP (CTG); type: cell-based, murine
lysozyme (LYZ) = test: Western blotting of lysozyme in 3D-cultured intestinal organoids; type: cell-based, murine; details: organoids cultured 6 days in ENR+CV, ENR+CD or ENR
Description: Western blotting. ISC-enriched organoids cultured in 3D Matrigel with ENRCV media were passaged to 24-well plate in 3D Matrigel with ENRCV. At day zero, media were replaced to ENR or ENRCD with or without indicated compounds, and media were replaced every other day. At day six, cells were harvested from Matrigel by mechanical disruption and suspended in basal media. Cell pellets were lysed with Pierce© IP lysis buffer (ThermoFisher, 87787) containing Halt™ Protease Inhibitor Cocktail, EDTA-Free (ThermoFisher, 87785) after 3-minute centrifuge at 300×g at 4° C. Cell extracts were resolved by NuPAGE© SDS-PAGE Gel system (ThermoFisher) and electroblotted onto polyvinylidene difluoride membranes using Criterion™ Blotter (Biorad). The membranes were blocked with 2% Blotting-Grade Blocker (Biorad, 1706404) in TBS-T (50 mM Tris-HCl, 150 mM NaCl, and 0.1% Tween 20, pH 8.0) and then probed with appropriate antibodies. Detection was performed using ECL Select™ Western Blotting Detection Reagent (Amersham, 45-000-999) and ImageQuant LAS4000 (GE Healthcare).
Western blotting. Organoid-containing gel was homogenized in basal medium and centrifuged at 300 rcf for 3 min. Organoid pellet was lysed with ice-cold Pierce IP Lysis Buffer (Thermo Fisher Scientific, #87787) containing Halt Protease Inhibitor Cocktail, EDTA-Free (Thermo Fisher Scientific, #87785) and incubated on ice for 20 min. The lysate was centrifuged at 17,000 rcf for 10 min, and the supernatant was combined with NuPAGE LDS Sample Buffer (Thermo Fisher Scientific, NP0007). Protein concentration was determined by Pierce 660 nm Protein Assay (Thermo Fisher Scientific, #22660) and normalized to the lowest concentration among each sample set. […] Chemiluminescent signals were detected by LAS4000 (GE Healthcare) using Amersham ECL Select Western Blotting Detection Reagent (GE Healthcare, #45-000-999), and total protein signals were obtained by Odyssey Imaging System (LI-COR Biosciences) using REVERT Total Protein Stain Kit (LI-COR Biosciences, #926-11010).

ISC-enriched organoids [3] = test: Primary screen, 384-well 2.5-D organoid differentiation (ENR+CD, 6 days, Target Selective Inhibitor Library, vs whole-plate median): ATP (CellTiter-Glo 3D, CTG); details: for Z.CTG / SSMD.CTG: primary screen; for Z.CTG: standard z score; for SSMD.CTG: strictly standardized mean difference
[4] = 1st of the 4 dose lines of the treatment (dose not given)
[5] = 2nd of the 4 dose lines of the treatment (dose not given)
[6] = 3rd of the 4 dose lines of the treatment (dose not given)
[7] = 4th of the 4 dose lines of the treatment (dose not given)

O=C(/C=C\n1cnc(-c2cc(C(F)(F)F)cc(C(F)(F)F)c2)n1)NNc1cnccn1 [KPT-330]
Z.LYZ.S (ISC-enriched organoids [1]; [4]): 1.677
Z.LYZ.S (ISC-enriched organoids [1]; [5]): −1.821
Z.LYZ.S (ISC-enriched organoids [1]; [6]): −2.523
Z.LYZ.S (ISC-enriched organoids [1]; [7]): −2.733
SSMD.LYZ.S (ISC-enriched organoids [1]; [4]): 1.329
SSMD.LYZ.S (ISC-enriched organoids [1]; [5]): −0.894
SSMD.LYZ.S (ISC-enriched organoids [1]; [6]): −1.575
SSMD.LYZ.S (ISC-enriched organoids [1]; [7]): −1.599
Z.CTG (ISC-enriched organoids [2]; Dose 0.02 uM): 1.135
repSSMD.CTG (ISC-enriched organoids [2]; Dose 0.02 uM): 0.959
Z.CTG (ISC-enriched organoids [2]; Dose 0.04 uM): 0.263
repSSMD.CTG (ISC-enriched organoids [2]; Dose 0.04 uM): 0.179
Z.CTG (ISC-enriched organoids [2]; dose 0.08 uM): 1.273
repSSMD.CTG (ISC-enriched organoids [2]; dose 0.08 uM): 0.916
LYZ abundance per unit protein (Western blotting) (lysozyme (LYZ)): appreciably increase LYZ abundance
Z.CTG (ISC-enriched organoids [3]; Dose 0.08 uM): 0.503
Z.CTG (ISC-enriched organoids [3]; Dose 0.40 uM): −1.569
Z.CTG (ISC-enriched organoids [3]; Dose 2.00 uM): −2.135
Z.CTG (ISC-enriched organoids [3]; Dose 10.00 uM): −4.480
toxicity at concentrations higher than 160 nM (ISC-enriched organoids [3]; primary screening): higher concentrations proved toxic
SSMD.CTG (ISC-enriched organoids [3]; [4]): 0.686
SSMD.CTG (ISC-enriched organoids [3]; [5]): −0.942
SSMD.CTG (ISC-enriched organoids [3]; [6]): −2.044
SSMD.CTG (ISC-enriched organoids [3]; [7]): −2.988
